Experiments:
[1] = Cmax in Sprague-Dawley rat at 1 mg/kg, iv by LC-MS/MS analysis; assay type: ADME, organism-based; set-up: dose 1 mg/kg, route intravenous; settings: in vivo
[2] = system: OCI-AML2; assay: Antiproliferative activity in human OCI-AML2 cells after 72 hrs by CCK8 assay; assay type: functional; settings: OCI-AML2, 72 h

CN1CCN(Cc2ccc(NC(=O)CCSc3ccc4c(/C=C/c5ccccn5)n[nH]c4c3)cc2C(F)(F)F)CC1 showed a Cmax [1] of 1270 ng/mL and a GI50 [2] of 1.42 µM.

Source: ChEMBL document CHEMBL4382204 (Eur J Med Chem, 2018)
